What was measured:
[1] = test system: barnyardgrass (Echinochloa crus-galli L.): ECHCG; experiment: Test Example 1 pre-emergence herbicidal activity, ECHCG; format: in vivo; conditions: Rate 63 g a.i./ha, visually observed 20th to 23rd day after application
How it was run: (§1)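 Pots of upland soil were sown, and one day later WP or EC formulations at set active-ingredient rates were sprayed pre-emergence in 500 L/ha water. Growth control scored visually 20–23 days after application, 0 (as untreated) to 100 (complete kill).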

[2] = test system: crabgrass (Digitaria sanguinalis L.): DIGSA; experiment: Test Example 1 pre-emergence herbicidal activity, DIGSA; format: in vivo; conditions: Rate 63 g a.i./ha, visually observed 20th to 23rd day after application
How it was run: as §1

[3] = test system: green foxtail (Setaria viridis L.): SETVI; experiment: Test Example 1 pre-emergence herbicidal activity, SETVI; format: in vivo; conditions: Rate 63 g a.i./ha, visually observed 20th to 23rd day after application
How it was run: as §1

[4] = test system: redroot pigweed (Amaranthus retroflexus L.): AMARE; experiment: Test Example 1 pre-emergence herbicidal activity, AMARE; format: in vivo; conditions: Rate 63 g a.i./ha, visually observed 20th to 23rd day after application
How it was run: as §1

[5] = test system: prickly sida (Sida spinosa L.): SEDSP; experiment: Test Example 1 pre-emergence herbicidal activity, SIDSP; format: in vivo; conditions: Rate 63 g a.i./ha, visually observed 20th to 23rd day after application
How it was run: as §1

[6] = test system: velvetleaf (Abutilon theophrasti): ABUTH; experiment: Test Example 1 pre-emergence herbicidal activity, ABUTH; format: in vivo; conditions: Rate 63 g a.i./ha, visually observed 20th to 23rd day after application
How it was run: as §1

[7] = test system: rice (Oryza sativa L.): ORYSA; experiment: Test Example 1 pre-emergence herbicidal activity, ORYSA; format: in vivo; conditions: Rate 63 g a.i./ha, visually observed 20th to 23rd day after application
How it was run: as §1

[8] = test system: wheat (Triticum aestivum L.): TRZAX; experiment: Test Example 1 pre-emergence herbicidal activity, TRZAX; format: in vivo; conditions: Rate 63 g a.i./ha, visually observed 20th to 23rd day after application
How it was run: as §1

[9] = test system: corn (Zea mays L.): ZEAMX; experiment: Test Example 1 pre-emergence herbicidal activity, ZEAMX; format: in vivo; conditions: Rate 63 g a.i./ha, visually observed 20th to 23rd day after application
How it was run: as §1

[10] = test system: soybean (Glycine max Merr.): GLXMA; experiment: Test Example 1 pre-emergence herbicidal activity, GLXMA; format: in vivo; conditions: Rate 63 g a.i./ha, visually observed 20th to 23rd day after application
How it was run: as §1

[11] = test system: barnyardgrass (Echinochloa crus-galli L.), ECHCG; experiment: Test Example 2 post-emergence (foliage treatment) herbicidal activity, ECHCG; format: in vivo; conditions: 63 g a.i./ha
How it was run: (§2)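 Plants grown in upland soil pots were sprayed on foliage at set leaf stages (ECHCG 1.1-2.1, DIGSA 1.0-2.0, AMARE 0.1-1.5, ORYSA 1.0-2). Formulated compound was applied at predetermined active-ingredient amounts in 500 L/ha water with 0.1% (v/v) spreader. Growth control (0–100%) was visually scored 20–23 days later.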

[12] = test system: crabgrass (Digitaria sanguinalis L.), DIGSA; experiment: Test Example 2 post-emergence (foliage treatment) herbicidal activity, DIGSA; format: in vivo; conditions: 63 g a.i./ha
How it was run: as §2

[13] = test system: green foxtail (Setaria viridis L.), SETVI; experiment: Test Example 2 post-emergence (foliage treatment) herbicidal activity, SETVI; format: in vivo; conditions: 63 g a.i./ha
How it was run: (§3)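 Each species was evaluated for growth suppression by eye, 0% matching untreated and 100% meaning death, some 20 to 23 days after a single post-emergence foliar treatment applied in 500 L/ha of water carrying 0.1% (v/v) agricultural spreader.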

[14] = test system: redroot pigweed (Amaranthus retroflexus L.), AMARE; experiment: Test Example 2 post-emergence (foliage treatment) herbicidal activity, AMARE; format: in vivo; conditions: 63 g a.i./ha
How it was run: as §2

[15] = test system: prickly sida (Sida spinosa L.), SIDSP; experiment: Test Example 2 post-emergence (foliage treatment) herbicidal activity, SIDSP; format: in vivo; conditions: 63 g a.i./ha
How it was run: as §3

[16] = test system: velvetleaf (Abutilon theophrasti), ABUTH; experiment: Test Example 2 post-emergence (foliage treatment) herbicidal activity, ABUTH; format: in vivo; conditions: 63 g a.i./ha
How it was run: as §3

[17] = test system: rice (Oryza sativa L.), ORYSA; experiment: Test Example 2 post-emergence (foliage treatment) herbicidal activity, ORYSA; format: in vivo; conditions: 63 g a.i./ha
How it was run: as §2

[18] = test system: wheat (Triticum aestivum L.), TRZAX; experiment: Test Example 2 post-emergence (foliage treatment) herbicidal activity, TRZAX; format: in vivo; conditions: 63 g a.i./ha
How it was run: as §3

[19] = test system: corn (Zea mays L.), ZEAMX; experiment: Test Example 2 post-emergence (foliage treatment) herbicidal activity, ZEAMX; format: in vivo; conditions: 63 g a.i./ha
How it was run: as §3

[20] = test system: soybean (Glycine max Merr.), GLXMA; experiment: Test Example 2 post-emergence (foliage treatment) herbicidal activity, GLXMA; format: in vivo; conditions: 63 g a.i./ha
How it was run: as §3

[21] = test system: barnyardgrass (Echinochiloa oryzicola: ECHOR); experiment: Test Example 3 water application herbicidal activity (paddy), ECHOR; format: in vivo; conditions: 63 g a.i./ha, water application under submerged condition at 0.5 leaf stage, visually observed 14th day after application; 0 = untreated control, 100 = complete kill
How it was run: (§4)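 Compound, as diluted wettable powder or emulsifiable concentrate, was pipetted into flood water at a set active-ingredient dose. Weeds were treated at 0.5-leaf stage after sowing or tuber planting; 2-leaf rice 4 days post-transplant. Control scored visually, 0 untreated to 100 complete kill, weeds day 14, rice day 21.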

[22] = test system: japanese bulrush (Scirpus juncoides: SCPJO); experiment: Test Example 3 water application herbicidal activity (paddy), SCPJO; format: in vivo; conditions: 63 g a.i./ha, water application under submerged condition at 0.5 leaf stage, visually observed 14th day after application; 0 = untreated control, 100 = complete kill
How it was run: as §4

[23] = test system: japanese ribbon wapato (Sagittaria pygmaea: SA GPY); experiment: Test Example 3 water application herbicidal activity (paddy), SAGPY; format: in vivo; conditions: 63 g a.i./ha, water application under submerged condition, tubers planted, visually observed 14th day after application; 0 = untreated control, 100 = complete kill
How it was run: as §4

[24] = test system: rice (Oryza sativa L.: ORYSA); experiment: Test Example 3 water application herbicidal activity (paddy), transplanted rice ORYSA; format: in vivo; conditions: 63 g a.i./ha, water application 4th day after transplantation of 2 leaf stage rice, visually observed 21st day after application; 0 = untreated control, 100 = complete kill
How it was run: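 Submerged application in flooded paddy soil (3–4 cm water); weeds treated at 0.5-leaf stage, transplanted rice 4 d after transplanting. Scored visually as % growth control: weeds at 14 d, rice at 21 d.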

SMILES	Pre-emergence Herbicidal Activity ECHCG (growth controlling degree) [1] [%]	Pre-emergence Herbicidal Activity DIGSP (growth controlling degree) [2] [%]	Pre-emergence Herbicidal Activity SETVI (growth controlling degree) [3] [%]	Pre-emergence Herbicidal Activity AMARE (growth controlling degree) [4] [%]	Pre-emergence Herbicidal Activity SIDSP (growth controlling degree) [5] [%]	Pre-emergence Herbicidal Activity ABUTH (growth controlling degree) [6] [%]	Pre-emergence Herbicidal Activity ORYSA (growth controlling degree) [7] [%]	Pre-emergence Herbicidal Activity TRZAX (growth controlling degree) [8] [%]	Pre-emergence Herbicidal Activity ZEAMX (growth controlling degree) [9] [%]	Pre-emergence Herbicidal Activity GLXMA (growth controlling degree) [10] [%]	growth controlling degree, ECHCO [11] [%]	growth controlling degree, DIGSP [12] [%]	growth controlling degree, SETVI [13] [%]	growth controlling degree, AMARE [14] [%]	growth controlling degree, SIDSP [15] [%]	growth controlling degree, ABUTH [16] [%]	growth controlling degree, ORYSA [17] [%]	growth controlling degree, TRZAX [18] [%]	growth controlling degree, ZEAMX [19] [%]	growth controlling degree, GLXMA [20] [%]	also measured
COc1c(Cl)cc(F)c(-c2nn(C)c(OC(F)F)c2Cl)c1NC(=O)OCc1ccccn1 [Compound 1-69, [3-chloro-6-[4-chloro-5-(difluoromethoxy)-1-methyl-1H-pyrazol-3-yl]-5-fluoro-2-methoxyphenyl]-carbamic acid, 2-pyridinylmethyl ester]	80	100	100	100	100	100	10	0	10	10	100	70	100	100	100	100	95	50	95	95	melting point: 35 to 37 °C
COc1c(Cl)cc(F)c(-c2nn(C)c(OC(F)F)c2Cl)c1NC=O [Compound 1-4, [3-chloro-6-[4-chloro-5-(difluoromethoxy)-1-methyl-1H-pyrazol-3-yl]-5-fluoro-2-methoxyphenyl]-formamide]	95	100	100	100	100	100	80	40	40	40	100	100	100	100	100	100	50	50	80	80	growth controlling degrees (%) ECHOR [21]: 100%; growth controlling degrees (%) SCPJO [22]: 100%; growth controlling degrees (%) SAGPY [23]: 98%; growth controlling degrees (%) ORYSA [24]: 70%; melting point: 100 to 103 °C
